“Also recorded” adds a separate entry of the source.
Tested on: microorganisms (e.g., bacteria, yeasts, fungi)
Experiment: Targeting peptide binding to target microorganisms (Table 3)
Settings: microorganism the targeting peptide binds; binding in aqueous buffers varied by peptide solubility, preferably 1x PBS

Substance | Target(s)
PF-018 (YYKTYFKEV; Peptide with targeting and/or antimicrobial activity) | E. coli; also recorded: C. jeikeium
1T-248 (IGGALNSCG; Peptide with targeting and/or antimicrobial activity) [Peptide 1T-248] | S. sanguinis
1T-101 (RLRVGRATDLPLTSFAVGVVRNLPDAPAH; Peptide with targeting and/or antimicrobial activity) [Peptide 1T-101] | A. naeslundii; also recorded: P. gingivalis; also recorded: S. epidermidis; also recorded: S. gordonii; also recorded: S. mitis; also recorded: S. mutans; also recorded: S. oralis; also recorded: S. sanguinis
1T-260 (NILYFIHDENQWEPQKAEIFRGSIKHCAWLSS; Peptide with targeting and/or antimicrobial activity) [Peptide 1T-260] | A. naeslundii; also recorded: P. gingivalis; also recorded: S. epidermidis; also recorded: S. gordonii; also recorded: S. mitis; also recorded: S. mutans; also recorded: S. oralis; also recorded: S. sanguinis
1T-57 (RLEYRRLETQVEENPESGRRPMRG; Peptide with targeting and/or antimicrobial activity) [Peptide 1T-57] | P. aeruginosa
1T-20 (PALVDLSNKEAVWAVLDDHS; Peptide with targeting and/or antimicrobial activity) [Peptide 1T-20] | S. mutans; also recorded: P. aeruginosa
1T-10 (SPAGLPGDGDEA; Peptide with targeting and/or antimicrobial activity) [Peptide 1T-10] | M. xanthus
1T-22 (VPLDDGTRRPEVARNRDKDRED; Peptide with targeting and/or antimicrobial activity) [Peptide 1T-22] | S. epidermidis; also recorded: P. aeruginosa
1T-145 (VEAGKRNISLENIEKISKGLGISISELFKYIEEGEDKIG; Peptide with targeting and/or antimicrobial activity) [Peptide 1T-145] | S. mitis; also recorded: S. mutans; also recorded: S. oralis
1T-252 (MKKNLKRFYALVLGFIIGCLFVSILIFIGY; Peptide with targeting and/or antimicrobial activity) [Peptide 1T-252] | F. nucleatum; also recorded: S. sanguinis
1T-93 (AMRSVNQA; Peptide with targeting and/or antimicrobial activity) [Peptide 1T-93] | S. epidermidis; also recorded: S. gordonii; also recorded: S. mitis; also recorded: S. mutans; also recorded: S. oralis; also recorded: S. sanguinis
1T-84 (FRKKRYGLSILLWLNAFTNLVNSIHAFYMTLF; Peptide with targeting and/or antimicrobial activity) [Peptide 1T-84] | S. pneumoniae
1T-27 (ALFVSLEQFLVVVAKSVFALCHSGTLS; Peptide with targeting and/or antimicrobial activity) [Peptide 1T-27] | S. mutans; also recorded: S. aureus; also recorded: S. epidermidis; also recorded: C. jeikeium; also recorded: C. xerosis; also recorded: C. striatum; also recorded: P. aeruginosa

Same assay, conditions: microorganism(s) the targeting peptide binds; binding in aqueous buffers depending on peptide solubility, preferably 1x PBS

Substance | Target(s)
PF-239 (PKHNVVTGVSVDLDYKP; Peptide with targeting and/or antimicrobial activity) | S. mutans; also recorded: E. coli
PF-308 (QQYLILDRM; Peptide with targeting and/or antimicrobial activity) | C. difficile
PF-334 (QQYLILDRM; Peptide with targeting and/or antimicrobial activity) | S. epidermidis; also recorded: C. difficile
PF-309 (GIPGMTAAPAEENEQEENADEE; Peptide with targeting and/or antimicrobial activity) | S. mutans; also recorded: E. coli
PF-365 (LYKQKIQLEEELEKLKDDRQ; Peptide with targeting and/or antimicrobial activity) | S. epidermidis; also recorded: B. subtilis; also recorded: B. fragilis; also recorded: P. aeruginosa; also recorded: C. albicans
PF-138 (AVHHSLLFR; Peptide with targeting and/or antimicrobial activity) | S. epidermidis and M. luteus and P. mirabilis and E. coli and C. albicans and MRSA and C. jeikeium and C. jejuni
PF-323 (ARESIEKSHVPVDATIVGVVDSFEVFDE; Peptide with targeting and/or antimicrobial activity) | S. mutans
PF-268 (EVLLSDLRPDIFSET; Peptide with targeting and/or antimicrobial activity) | S. mutans
PF-166 (SKAVSRKRSI; Peptide with targeting and/or antimicrobial activity) | E. coli; also recorded: C. jeikeium
PF-231 (AVRDFKKSVREEDEAASLNSPRTIDAQVKTSESTSVKS; Peptide with targeting and/or antimicrobial activity) | S. mutans
PF-216 (ESVDKITEALEEDGFPAKVQ; Peptide with targeting and/or antimicrobial activity) | S. mutans; also recorded: E. coli

Same assay, conditions: microorganism(s) the targeting peptide binds; peptide binding conducted in aqueous buffers varied by peptide solubility, preferably 1x PBS

Substance | Target(s)
PF-409 (DLVQSILSEFKKSG; Peptide with targeting and/or antimicrobial activity) | S. epidermidis and MRSA and C. jeikeium and C. jejuni
PF-507 (LALSIANLFKKKA; Peptide with targeting and/or antimicrobial activity) | S. mutans; also recorded: E. coli
PF-501 (GSTAHKSPIGSTNNQWGMKKTPTD; Peptide with targeting and/or antimicrobial activity) | S. mutans

Same assay, conditions: peptide binding in aqueous buffers varied by peptide solubility; preferably 1x PBS

Substance | Target(s) (microorganisms bound by the targeting peptide)
PEIIKIVSGLL [PF-758] | S. epidermidis and M. luteus and E. coli and MRSA and S. pneumoniae and E. faecalis and C. jeikeium
PF-641 (SWKCHHLAIGGSWKCHHLAI; Peptide with targeting and/or antimicrobial activity) | S. epidermidis and M. luteus and E. coli and C. albicans and MRSA and E. faecalis and C. jeikeium and C. jejuni
PF-S029 (TSDTQSQSPWLFDNADIVNIYPVQLMHSSDND; Peptide with targeting and/or antimicrobial activity) | M. luteus; also recorded: P. mirabilis; also recorded: E. coli; also recorded: C. albicans; also recorded: C. jeikeium; also recorded: C. jejuni
PF-648 (ARRYPAAGS; Peptide with targeting and/or antimicrobial activity) | S. mutans; also recorded: E. coli
PF-671 (TVSAFRTVH; Peptide with targeting and/or antimicrobial activity) | S. mutans; also recorded: E. coli
PF-705 (GEEEGTVAD; Peptide with targeting and/or antimicrobial activity) | S. mutans; also recorded: E. coli

Reference: patent US20110039762A1, “TARGETED ANTIMICROBIAL MOIETIES” (C3 JIAN, INC., priority 2009, published 2011)
